Experimental data taken from patent publication US9266876B2 (Actelion Pharmaceuticals Ltd., priority 2012, dated 2016).

Biological target: human CXCR3A (Homo sapiens (Human), UniProt P49682)
Test: FLIPR assay
Format: cell-based
Conditions: CHO-K1 cells expressing the human CXCR3A coupled to Galpha(16); CXCL10 agonist 20 nM; Fluo-4-AM fluorescence; mean values if determined several times
Method: The bioactivity of compounds is tested in a fluorometric imaging plate reader (FLIPR: Molecular Devices) using engineered CHO-K1 cells expressing the human CXCR3A coupled to a G protein (Galpha(16)). Cells are plated the day prior to bioassay in F12 medium supplemented with 10% FBS and G418 and hygromycin antibiotics to maintain recombinant selection. At the day of bioassay, cells are washed and dye loaded for one hour with Fluo-4-AM (Invitrogen) in Hanks Balanced Salt Solution (Invitrogen), buffered with 20 mM Hepes at pH 7.4 and sodium bicarbonate (0.015%), containing 5 mM probenecid. […] Cells are washed free of excess dye and 60 microliter of wash buffer is added. Stock solutions of test compounds are made up at a concentration of 10 mM in DMSO, and serially diluted in dilution buffer to concentrations required for inhibition dose response curves. After a 10 minute incubation period at 37° C., 10 microliters of each compound dilution are transferred from a compound plate to the plate containing the recombinant cells in the FLIPR instrument according to the manufacturer's instructions. Following basal readings, 10 microliter CXCL10 agonist at a concentration of 20 nM (from Peprotech) is added, again using the FLIPR instrument. Changes in fluorescence are monitored before and after addition of the test compounds. Emission peak values above base level after CXCL10 addition are exported after base line subtraction. The program XLfit is used to fit the data to a single site dose response curve and to calculate IC50 values.

Chain of human CXCR3A (P49682 whole entry): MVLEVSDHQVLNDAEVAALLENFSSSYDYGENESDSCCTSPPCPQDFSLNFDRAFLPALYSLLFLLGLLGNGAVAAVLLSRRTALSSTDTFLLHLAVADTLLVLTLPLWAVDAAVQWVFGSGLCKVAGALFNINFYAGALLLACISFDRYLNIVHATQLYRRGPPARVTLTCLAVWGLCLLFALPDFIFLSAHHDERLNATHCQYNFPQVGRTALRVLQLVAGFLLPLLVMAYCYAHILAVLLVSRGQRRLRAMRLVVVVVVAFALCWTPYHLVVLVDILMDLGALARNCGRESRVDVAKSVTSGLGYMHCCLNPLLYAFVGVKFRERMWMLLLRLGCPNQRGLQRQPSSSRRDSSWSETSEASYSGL

Row | IC50 | Compound
1 | 31 nM | Cc1cc2cccnc2n1CC(=O)N1CCN(c2scnc2-c2nc3ccccc3[nH]2)CC1 [Example 66, 1-{4-[4-(1H-Benzoimidazol-2-yl)-thiazol-5-yl]-piperazin-1-yl}-2-(2-methyl-pyrrolo[2,3-b]pyridin-1-yl)-ethanone]
2 | 9 nM | Cc1cn(CC(=O)N2CCN(c3scnc3-c3nc4ccccc4[nH]3)CC2)c2ncccc12 [Example 67, 1-{4-[4-(1H-Benzoimidazol-2-yl)-thiazol-5-yl]-piperazin-1-yl}-2-(3-methyl-pyrrolo[2,3-b]pyridin-1-yl)-ethanone]
3 | 69 nM | COc1ccc2ccn(CC(=O)N3CCN(c4scnc4-c4nc5ccccc5[nH]4)CC3)c2n1 [Example 69, 1-{4-[4-(1H-Benzoimidazol-2-yl)-thiazol-5-yl]-piperazin-1-yl}-2-(6-methoxy-pyrrolo[2,3-b]pyridin-1-yl)-ethanone]
4 | 13 nM | Cc1ccc2ccn(CC(=O)N3CCN(c4scnc4-c4nc5ccccc5[nH]4)CC3)c2n1 [Example 70, 1-{4-[4-(1H-Benzoimidazol-2-yl)-thiazol-5-yl]-piperazin-1-yl}-2-(6-methyl-pyrrolo[2,3-b]pyridin-1-yl)-ethanone]
5 | 10 nM | Cn1c(=O)n(CC(=O)N2CCN(c3scnc3-c3nc4ccc(CO)cc4[nH]3)CC2)c2ccccc21 [Example 76, 1-(2-{4-[4-(6-Hydroxymethyl-1H-benzoimidazol-2-yl)-thiazol-5-yl]-piperazin-1-yl}-2-oxo-ethyl)-3-methyl-1,3-dihydro-benzoimidazol-2-one]
6 | 14 nM | Cn1c(=O)n(CC(=O)N2CCN(c3scnc3-c3nc4cc(OCCO)ccc4[nH]3)CC2)c2ccccc21 [Example 101, 1-[2-(4-{4-[5-(2-Hydroxy-ethoxy)-1H-benzoimidazol-2-yl]thiazol-5-yl}-piperazin-1-yl)-2-oxo-ethyl]-3-methyl-1,3-dihydro-benzoimidazol-2-one]
7 | 14 nM | COCCOc1ccc2[nH]c(-c3ncsc3N3CCN(C(=O)Cn4c(=O)n(C)c5ccccc54)CC3)nc2c1 [Example 102, 1-[2-(4-{4-[5-(2-Methoxy-ethoxy)-1H-benzoimidazol-2-yl]-thiazol-5-yl}-piperazin-1-yl)-2-oxo-ethyl]-3-methyl-1,3-dihydro-benzoimidazol-2-one]
8 | 99 nM | O=C(CN1CCOc2ccccc21)N1CCN(c2scnc2-c2nc3ccccc3[nH]2)CC1 [Example 106, 1-{4-[4-(1H-Benzoimidazol-2-yl)-thiazol-5-yl]-piperazin-1-yl}-2-(2,3-dihydro-benzo[1,4]oxazin-4-yl)-ethanone]
9 | 78 nM | O=C1CCN(CC(=O)N2CCN(c3scnc3-c3nc4ccccc4[nH]3)CC2)c2ccccc21 [Example 107, 1-(2-{4-[4-(1H-Benzoimidazol-2-yl)-thiazol-5-yl]-piperazin-1-yl}-2-oxo-ethyl)-2,3-dihydro-1H-quinolin-4-one]
10 | 4 nM | O=C(Cn1ccc2cccc(F)c21)N1CCN(c2scnc2-c2nc3ccccc3[nH]2)CC1 [Example 108, 1-{4-[4-(1H-Benzoimidazol-2-yl)-thiazol-5-yl]-piperazin-1-yl}-2-(7-fluoro-indol-1-yl)-ethanone]
11 | 280 nM | COc1ccc(CC(=O)N2CCN(c3scnc3-c3nc4ccccc4[nH]3)CC2)c(F)c1 [Example 111, 1-{4-[4-(1H-Benzoimidazol-2-yl)-thiazol-5-yl]-piperazin-1-yl}-2-(2-fluoro-4-methoxy-phenyl)-ethanone]
12 | 10 nM | Cn1c(=O)n(CC(=O)N2CCN(c3scnc3-c3nc4c(O)cccc4[nH]3)CC2)c2ccccc21 [Example 112, 1-(2-{4-[4-(4-Hydroxy-1H-benzoimidazol-2-yl)-thiazol-5-yl]-piperazin-1-yl}-2-oxo-ethyl)-3-methyl-1,3-dihydro-benzoimidazol-2-one]

More lines, now with the values behind:

Row | Compound | IC50
13 | Cc1ccccc1-c1nc(-c2nc3ccccc3[nH]2)c(N2CCN(C(=O)Cn3cnc4cccnc43)[C@H](C)C2)s1 [Example 81, 1-{(R)-4-[4-(1H-Benzoimidazol-2-yl)-2-o-tolyl-thiazol-5-yl]-2-methyl-piperazin-1-yl}-2-imidazo[4,5-b]pyridin-3-yl-ethanone] | 23 nM
14 | COc1ccccc1-c1nc(-c2nc3ccccc3[nH]2)c(N2CCN(C(=O)Cn3cnc4cccnc43)[C@H](C)C2)s1 [Example 82, 1-{(R)-4-[4-(1H-Benzoimidazol-2-yl)-2-(2-methoxy-phenyl)-thiazol-5-yl]-2-methyl-piperazin-1-yl}-2-imidazo[4,5-b]pyridin-3-yl-ethanone] | 96 nM
15 | C[C@@H]1CN(c2scnc2-c2nc3cc(C(C)(C)C)ccc3[nH]2)CCN1C(=O)Cn1cnc2cccnc21 [Example 86, 1-{(R)-4-[4-(5-tert-Butyl-1H-benzoimidazol-2-yl)-thiazol-5-yl]-2-methyl-piperazin-1-yl}-2-imidazo[4,5-b]pyridin-3-yl-ethanone] | 1 nM
16 | C[C@@H]1CN(c2scnc2-c2nc3cc(Cl)c(F)cc3[nH]2)CCN1C(=O)Cn1cnc2cccnc21 [Example 89, 1-{(R)-4-[4-(5-Chloro-6-fluoro-1H-benzoimidazol-2-yl)-thiazol-5-yl]-2-methyl-piperazin-1-yl}-2-imidazo[4,5-b]pyridin-3-yl-ethanone] | 1 nM
17 | C[C@@H]1CN(c2scnc2-c2nc3c(F)c(F)ccc3[nH]2)CCN1C(=O)Cn1cnc2cccnc21 [Example 90, 1-{(R)-4-[4-(4,5-Difluoro-1H-benzoimidazol-2-yl)-thiazol-5-yl]-2-methyl-piperazin-1-yl}-2-imidazo[4,5-b]pyridin-3-yl-ethanone] | 2 nM
18 | C[C@@H]1CN(c2scnc2-c2nc3cc(Cl)c(C(F)(F)F)cc3[nH]2)CCN1C(=O)Cn1cnc2cccnc21 [Example 93, 1-{(R)-4-[4-(5-Chloro-6-trifluoromethyl-1H-benzoimidazol-2-yl)-thiazol-5-yl]-2-methyl-piperazin-1-yl}-2-imidazo[4,5-b]pyridin-3-yl-ethanone] | 1 nM
19 | Cc1c(Cl)ccc2[nH]c(-c3ncsc3N3CCN(C(=O)Cn4cnc5cccnc54)[C@H](C)C3)nc12 [Example 94, 1-{(R)-4-[4-(5-Chloro-4-methyl-1H-benzoimidazol-2-yl)-thiazol-5-yl]-2-methyl-piperazin-1-yl}-2-imidazo[4,5-b]pyridin-3-yl-ethanone] | 0.5 nM
20 | C[C@@H]1CN(c2scnc2-c2nc3c(C(F)(F)F)cccc3[nH]2)CCN1C(=O)Cn1cnc2cccnc21 [Example 95, 2-Imidazo[4,5-b]pyridin-3-yl-1-{(R)-2-methyl-4-[4-(4-trifluoromethyl-1H-benzoimidazol-2-yl)-thiazol-5-yl]-piperazin-1-yl}-ethanone] | 4 nM
21 | C[C@@H]1CN(c2scnc2-c2nc3c(F)cccc3[nH]2)CCN1C(=O)Cn1cnc2cccnc21 [Example 97, 1-{(R)-4-[4-(4-Fluoro-1H-benzoimidazol-2-yl)-thiazol-5-yl]-2-methyl-piperazin-1-yl}-2-imidazo[4,5-b]pyridin-3-yl-ethanone] | 2 nM
22 | C[C@@H]1CN(c2scnc2-c2nc3ccccc3n2C)CCN1C(=O)Cn1cnc2cccnc21 [Example 98, 2-Imidazo[4,5-b]pyridin-3-yl-1-{(R)-2-methyl-4-[4-(1-methyl-1H-benzoimidazol-2-yl)-thiazol-5-yl]-piperazin-1-yl}-ethanone] | 9 nM
23 | O=C(CN1CCCc2ccccc21)N1CCN(c2scnc2-c2nc3ccccc3[nH]2)CC1 [Example 105, 1-{4-[4-(1H-Benzoimidazol-2-yl)-thiazol-5-yl]-piperazin-1-yl}-2-(3,4-dihydro-2H-quinolin-1-yl)-ethanone] | 89 nM
24 | O=C(Cc1cccnc1)N1CCN(c2scnc2-c2nc3ccccc3[nH]2)CC1 [Example 110, 1-{4-[4-(1H-Benzoimidazol-2-yl)-thiazol-5-yl]-piperazin-1-yl}-2-pyridin-3-yl-ethanone] | 487 nM
25 | C[C@@H]1CN(c2scnc2-c2nc3ccccc3[nH]2)CCN1C(=O)Cc1ccc2ccccc2c1 [Example 117, 1-{(R)-4-[4-(1H-Benzoimidazol-2-yl)-thiazol-5-yl]-2-methyl-piperazin-1-yl}-2-naphthalen-2-yl-ethanone] | 75 nM
26 | C[C@@H]1CN(c2scnc2-c2nc3ccccc3[nH]2)CCN1C(=O)Cc1ccc2cccnc2c1 [Example 120, 1-{(R)-4-[4-(1H-Benzoimidazol-2-yl)-thiazol-5-yl]-2-methyl-piperazin-1-yl}-2-quinolin-7-yl-ethanone] | 16 nM
27 | C[C@@H]1CN(c2scnc2-c2nc3ccccc3[nH]2)CCN1C(=O)Cc1ccc2nccnc2c1 [Example 121, 1-{(R)-4-[4-(1H-Benzoimidazol-2-yl)-thiazol-5-yl]-2-methyl-piperazin-1-yl}-2-quinoxalin-6-yl-ethanone] | 42 nM
28 | C[C@@H]1CN(c2scnc2-c2nc3ccccc3[nH]2)CCN1C(=O)Cc1ccc2c(c1)NC(=O)CO2 [Example 122, 6-(2-{(R)-4-[4-(1H-Benzoimidazol-2-yl)-thiazol-5-yl]-2-methyl-piperazin-1-yl}-2-oxo-ethyl)-4H-benzo[1,4]oxazin-3-one] | 152 nM
29 | C[C@@H]1CN(c2scnc2-c2nc3ccccc3[nH]2)CCN1C(=O)Cc1cccc2[nH]ccc12 [Example 123, 1-{(R)-4-[4-(1H-Benzoimidazol-2-yl)-thiazol-5-yl]-2-methyl-piperazin-1-yl}-2-(1H-indol-4-yl)-ethanone] | 69 nM
